Structures can show the parent of a compound that is named as a salt.
How the values were obtained:
[1] = tested on: L6-myotubes; assay: Measurement of intracellular cAMP levels (alpha screen cAMP kit) in differentiated cells, compared to isoproterenol; format: cell-based; conditions: 0.25 h, compound at 10 μM vs isoproterenol at 10 μM, 15 min stimulation, read-out: Biological example 2: intracellular cAMP level activity compared to that of isoproterenol
Procedure: (§1) L6-myoblasts were grown in Dulbecco's Modified Eagle's Medium (DMEM) containing 1 g/L glucose supplemented with 10% fetal bovine serum, 2 mM L-Glutamine, 50 U/mL penicillin, […] streptomycin and 10 mM HEPES. Cells were plated at 1×10^5 cells per mL in 24-well plates. After reaching 90% confluence the cells were grown in medium containing 2% FBS for 7 days where upon cells differentiated into myotubes.
Differentiated cells were serum-starved overnight and stimulated with an agonist, final concentration 1×10^−5 M, for 15 min in stimulation buffer (HBSS supplemented with 1% BSA, 5 mM HEPES and 1 mM IBMX, pH 7.4). The medium was aspirated and 100 μL of 95% EtOH was added to each well of the 24-well plate and cells were kept at −20° C. overnight. The EtOH was allowed to evaporate and 500 μL of lysis buffer (1% BSA, 5 mM HEPES and 0.3% Tween-20, pH 7.4) was added to each well. The plate was kept at −80° C. for 30 min and then at −20° C. until the day of detection when the samples were thawed. Intracellular cAMP levels were detected using an alpha screen cAMP kit (6760635D from Perkin Elmer). The activity for each compound is compared to that of isoproterenol.

[2] = tested on: L6-myotubes; assay: Glucose uptake (3H-2-deoxyglucose) in differentiated L6-myotubes, compared to isoproterenol; format: cell-based; conditions: compound at 10 μM vs isoproterenol at 10 μM, read-out: Biological example 1: glucose uptake activity compared to that of isoproterenol
Procedure: as §1
Differentiated L6-myotubes were serum-starved overnight in medium containing 0.5% fatty-acid free BSA and stimulated with an agonist, with a final concentration of 1×10^−5 M. After 1 h 40 min the cells were washed with warm glucose free medium or PBS twice and another portion of agonist was added to the glucose free medium. After 20 min the cells were exposed to 50 nM ^3H-2-deoxyglucose for another 10 min before washed in ice cold glucose free medium or PBS three times and lysed in 400 μL/well 0.2 M NaOH for 1 h at 60° C. The cell lysate was mixed with 4 mL scintillation buffer (Emulsifier Safe, Perkin Elmer) and the radioactivity was detected in a p-counter (Tri-Carb 4810TR, Perkin Elmer). The activity for each compound is compared to that of isoproterenol.

| Structure (SMILES) | Emax at 10 µM [1] [%] | Emax at 10 µM [2] [%] |
| --- | --- | --- |
| CN1CCC[C@@H](CC(C)(C)NC[C@H](O)c2cccc(F)c2)C1 [Example 10, (R)-1-(3-Fluorophenyl)-2-((2-methyl-1-((S)-1-methylpiperidin-3-yl)-propan-2-yl)amino)ethan-1-ol] | < 25 | > 75 |
| CC(C)(C[C@H]1CCCCO1)NC[C@H](O)c1cccc(F)c1 [Example 81, (R)-1-(3-Fluorophenyl)-2-((2-methyl-1-((R)-tetrahydro-2H-pyran-2-yl)propan-2-yl)amino)ethan-1-ol] | 25 to 50 | > 75 |
| CC(=O)N1CCN(CC(C)(C)NC[C@H](O)c2cccc(F)c2)CC1 [Example 86, (R)-1-(4-(2-((2-(3-Fluorophenyl)-2-hydroxyethyl)amino)-2-methyl-propyl)piperazin-1-yl)ethan-1-one dihydrochloride] | < 25 | > 75 |
| CC(C)(C[C@H]1CCN(C(=O)OC(C)(C)C)C1)NC[C@H](O)c1cncc(F)c1 [Example 60, tert-Butyl (R)-3-(2-(((R)-2-(5-fluoropyridin-3-yl)-2-hydroxyethyl)-amino)-2-methylpropyl)pyrrolidine-1-carboxylate] | < 25 | 50 to 75 |
| CNC(=O)N1CCC[C@@H](CC(C)(C)NC[C@H](O)c2cncc(F)c2)C1 [Example 19, (S)-3-(2-(((R)-2-(5-Fluoropyridin-3-yl)-2-hydroxyethyl)amino)-2-methylpropyl)-N-methylpiperidine-1-carboxamide dihydrochloride] | 50 to 75 | > 75 |
| COC(=O)N1CCC[C@@H](CC(C)(C)NC[C@H](O)c2cncc(F)c2)C1 [Example 17, Methyl (S)-3-(2-(((R)-2-(5-fluoropyridin-3-yl)-2-hydroxyethyl)amino)-2-methylpropyl)piperidine-1-carboxylate dihydrochloride] | > 75 | > 75 |
| CN1CCC(CC(C)(C)NC[C@H](O)c2cccc(F)c2)CC1 [Example 32, (R)-1-(3-Fluorophenyl)-2-((2-methyl-1-(1-methylpiperidin-4-yl)-propan-2-yl)amino)ethan-1-ol dihydrochloride] | < 25 | 50 to 75 |
| CC(C)(C[C@@H]1CCCNC1)NC[C@H](O)c1cncc(F)c1 [Example 12, (R)-1-(5-Fluoropyridin-3-yl)-2-((2-methyl-1-((S)-piperidin-3-yl)-propan-2-yl)amino)ethan-1-ol] | < 25 | > 75 |
| CN(C)C(=O)N1CCC[C@@H](CC(C)(C)NC[C@H](O)c2cccc(F)c2)C1 [Example 8, (S)-3-(2-(((R)-2-(3-Fluorophenyl)-2-hydroxyethyl)amino)-2-methyl-propyl)-N,N-dimethylpiperidine-1-carboxamide] | < 25 | > 75 |
| CC(C)(C[C@@H]1CCC(=O)NC1)NC[C@H](O)c1cncc(F)c1 [Example 37, (S)-5-(2-(((R)-2-(5-Fluoropyridin-3-yl)-2-hydroxyethyl)amino)-2-methylpropyl)piperidin-2-one hydrochloride] | < 25 | > 75 |
| CC(C)(C[C@@H]1CCNC(=O)C1)NC[C@H](O)c1cncc(F)c1 [Example 55, (S)-4-(2-(((R)-2-(5-Fluoropyridin-3-yl)-2-hydroxyethyl)amino)-2-methylpropyl)piperidin-2-one] | 50 to 75 | > 75 |
| CC(C)(CC1CCN(C(=O)C(C)(C)C)CC1)NC[C@H](O)c1cccc(F)c1 [Example 41, (R)-1-(4-(2-((2-(3-Fluorophenyl)-2-hydroxyethyl)amino)-2-methyl-propyl)piperidin-1-yl)-2,2-dimethylpropan-1-one] | < 25 | 25 to 50 |
| CC(C)(CN1CCC(C)(NS(C)(=O)=O)CC1)NC[C@H](O)c1cccc(F)c1 [Example 88, (R)—N-(1-(2-((2-(3-Fluorophenyl)-2-hydroxyethyl)amino)-2-methyl-propyl)-4-methylpiperidin-4-yl)methanesulfonamide dihydrochloride] |  | 50 to 75 |
| CC(C)(C[C@H]1CCNC1=O)NC[C@H](O)c1cncc(F)c1 [Example 75, (R)-3-(2-(((R)-2-(5-Fluoropyridin-3-yl)-2-hydroxyethyl)amino)-2-methylpropyl)pyrrolidin-2-one dihydrochloride] | < 25 | 25 to 50 |
| CC(=O)N1CCC[C@@H](CC(C)(C)NC[C@H](O)c2cncc(F)c2)C1 [Example 13, 1-((S)-3-(2-(((R)-2-(5-Fluoropyridin-3-yl)-2-hydroxyethyl)amino)-2-methylpropyl)piperidin-1-yl)ethan-1-one dihydrochloride] | < 25 | > 75 |
| CC(C)(CC1CCOCC1)NC[C@H](O)c1cccc(F)c1 [Example 80, (R)-1-(3-Fluorophenyl)-2-((2-methyl-1-(tetrahydro-2H-pyran-4-yl)-propan-2-yl)amino)ethan-1-ol] | < 25 | > 75 |
| CC(C)(C[C@H]1CCNC(=O)C1)NC[C@H](O)c1cncc(F)c1 [Example 54, (R)-4-(2-(((R)-2-(5-Fluoropyridin-3-yl)-2-hydroxyethyl)amino)-2-methylpropyl)piperidin-2-one] | < 25 | 50 to 75 |
| CC(C)(C[C@H]1CCCOC1)NC[C@H](O)c1cccc(F)c1 [Example 83, (R)-1-(3-Fluorophenyl)-2-((2-methyl-1-((R)-tetrahydro-2H-pyran-3-yl)propan-2-yl)amino)ethan-1-ol] | < 25 | > 75 |
| COC(=O)N1CCC(CC(C)(C)NC[C@H](O)c2cccc(F)c2)CC1 [Example 43, Methyl (R)-4-(2-((2-(3-fluorophenyl)-2-hydroxyethyl)amino)-2-methyl-propyl)piperidine-1-carboxylate] | < 25 | 50 to 75 |
| CC(C)(C[C@@H]1CCCN(S(C)(=O)=O)C1)NC[C@H](O)c1cncc(F)c1 [Example 14, (R)-1-(5-Fluoropyridin-3-yl)-2-((2-methyl-1-((S)-1-(methylsulfonyl)-piperidin-3-yl)propan-2-yl)amino)ethan-1-ol hydrochloride] | < 25 | 50 to 75 |
| CC(C)(C[C@@H]1CCNC1=O)NC[C@H](O)c1cccc(F)c1 [Example 77, (S)-3-(2-(((R)-2-(3-Fluorophenyl)-2-hydroxyethyl)amino)-2-methyl-propyl)pyrrolidin-2-one hydrochloride] | < 25 | 50 to 75 |
| CN1C[C@@H](CC(C)(C)NC[C@H](O)c2cccc(F)c2)CCC1=O [Example 79, (R)-5-(2-(((R)-2-(3-Fluorophenyl)-2-hydroxyethyl)amino)-2-methyl-propyl)-1-methylpiperidin-2-one hydrochloride] |  | > 75 |
| CC(=O)NC1(C)CCN(CC(C)(C)NC[C@H](O)c2cccc(F)c2)CC1 [Example 87, (R)—N-(1-(2-((2-(3-Fluorophenyl)-2-hydroxyethyl)amino)-2-methyl-propyl)-4-methylpiperidin-4-yl)acetamide] |  | 50 to 75 |

— patent US20260242335A1, “HETEROCYCLOALKYL BETA-HYDROXY ALKYL AMINES FOR USE IN THE TREATMENT OF HYPERGLYCAEMIA AND DISORDERS CHARACTERISED BY HYPERGLYCAEMIA” (ATROGI AB, priority 2023, published 2026)
